Experimental data as given in patent publication US6741954B2, “Selection method for odorants” (Symrise GmbH & Co. KG, priority 2000, dated 2004).
Where two headings read alike, the source gives them in different places.

How the values were obtained:
Format in all cases: physicochemical
[1] = Headspace above the wet washed hair: relative partition parameter headspace/shampoo (SPME-GC)
Method: (§1) The procedure is analogous in all examples.
The example reflects the scent impression, which is perceived from freshly washed hair. The shampoo is prepared as is generally customary. The mixture of 39 odorants is incorporated into the above-mentioned shampoo (1st) in an amount of 1%. A hair tress (2.5 g) is washed in 100 ml of a 20% shampoo solution in water by immersing 5-10 times and stirring, and then rinsed in 100 ml of clear water by immersing it three times. The hair tress is carefully patted with thin cellulose. The moist hair tress is transferred to a 100 ml Erlenmeyer flask sealed with a septum and left to stand for 3 h. The headspace above the washed and rinsed hair tress is extracted over 15 min using solid phase microextraction (SPME). The SPME needle is desorbed in a GC injector, and a gas chromatogram is recorded. […] The analytical results are then used mathematically as described above.

[2] = Headspace above the shampoo: relative partition parameter (SPME-GC); details: log of amount in headspace relative to amount in shampoo; 1% odorant mixture, SPME 15 min
Method: as §1
The example reflects the scent impression, which is perceived from a freshly opened bottle of shampoo. The mixture of 39 odorants is incorporated into the above-mentioned shampoo (1) in an amount of 1%. 20 g of the shampoo are transferred to a 100 ml Erlenmeyer flask sealed with a septum. The headspace above the shampoo is extracted using a SPME over 15 min. […] The analytical results are then used mathematically as described above.

[3] = Headspace above the soap bar: relative partition parameter (SPME-GC)
Method: as §1
The example reflects the scent impression, which is perceived from a fresh bar of soap. […] 20 g of the grated soap are transferred to a 100 ml Erlenmeyer flask sealed with a septum. The headspace above the shampoo is extracted using a SPME over 15 min. […] The analytical results are then used mathematically as described above.

[4] = Headspace above the washing powder: relative partition parameter (SPME-GC)
Method: as §1
The example reflects the scent impression, which is perceived from a freshly opened pack of laundry detergent. The mixture of 39 odorants is incorporated in the above-mentioned washing powder in an amount of 0.5%. 20 g of the washing powder are transferred to a 100 ml Erlenmeyer flask sealed with a septum. The headspace above the shampoo is extracted using a SPME over 15 min. […] The analytical results are then used mathematically as described above.

[5] = Headspace above the candle wax: relative partition parameter (SPME-GC); details: log of amount in headspace relative to amount in candle wax; 5% odorant mixture, grated nonburning candle, SPME 15 min
Method: as §1
The example reflects the scent impression, which is perceived from a nonburning candle. The mixture of 39 odorants is incorporated into a candle in an amount of 5%. 20 g of the grated candle are transferred to a 100 ml Erlenmeyer flask sealed with a septum. The headspace above the candle is extracted using a SPME over 15 min. […] The analytical results are then used mathematically as described above.

[6] = Headspace above the fresh gel room air freshener: relative partition parameter (SPME-GC); details: log of amount in headspace relative to amount in gel; 5% odorant mixture, 10 liter vessel, 1 h, SPME 15 min
Method: as §1
The example reflects the scent impression, which is perceived above a fresh gel room air freshener. The mixture of 39 odorants is incorporated into an air freshener in an amount of 5%. 100 g of the air freshener are placed in its customary presentation form in a large sealed 10 liter vessel. The air freshener is left to stand for one hour. The headspace above the air freshener is extracted using a SPME over 15 min. […] The analytical results are then used mathematically as described above.

[7] = Headspace above the solution of WC scented block cleaner: relative partition parameter (SPME-GC); details: log of amount in headspace above 1% solution in water relative to amount in WC block; 1% odorant mixture, SPME 15 min
Method: as §1
The example reflects the scent impression, which is perceived from a WC scented block cleaner. The mixture of 39 odorants is incorporated into the toilet block in an amount of 1%. A 1% solution of the toilet block in water is prepared. 20 ml of this solution are transferred to a 100 ml Erlenmeyer flask sealed with a septum. The headspace above the shampoo is extracted by means of a SPME over 15 min. […] The analytical results are then used mathematically as described above.

[8] = log of amount in headspace above wet washed hair relative to amount in shampoo, 1% odorant mixture, 3 h standing, SPME 15 min
[9] = log of amount in headspace relative to amount in soap, 1.2% odorant mixture, grated soap, SPME 15 min
[10] = log of amount in headspace relative to amount in washing powder, 0.5% odorant mixture, SPME 15 min

Row | SMILES | Activity (logarithmic partition parameter above wet hair) [1, 8] | Activity (logarithmic partition parameter above shampoo) [2] | Activity (logarithmic partition parameter above soap) [3, 9] | Activity (logarithmic partition parameter above washing powder) [4, 10] | Activity (logarithmic partition parameter above candle wax) [5] | Activity (logarithmic partition parameter above gel room air fresheners) [6] | Activity (logarithmic partition parameter above dissolved WC scented block cleaners) [7] | Activity (logarithmic partition parameter above wet hair) [1] | Activity (logarithmic partition parameter above soap) [3] | Activity (logarithmic partition parameter above washing powder) [4]
1 | CC(=O)O[C@@H]1C[C@H]2CC[C@]1(C)C2(C)C (racemic) [Isobornyl acetate] | −0.741 | −0.026 | 0.147 | 0.061 | −0.588 | 0.392 | −0.434 | – | – | –
2 | CC(=O)OCc1ccccc1 [Benzyl acetate] | −1.006 | −0.293 | 0.538 | 0.224 | −0.244 | 0.594 | −1.552 | – | – | –
3 | OCc1ccccc1 [Benzyl alcohol] | −1.867 | −0.759 | −0.088 | −0.389 | −0.364 | 0.148 | – | – | – | –
4 | O=C(OCc1ccccc1)c1ccccc1O [Benzyl salicylate] | – | – | – | −2.349 | – | – | −3.166 | – | – | –
5 | C=C1C2CCC(C2)C1(C)C (stereo not drawn) [Camphene] | −0.721 | 0.777 | 0.392 | 0.357 | 0.783 | −0.116 | −1.348 | – | – | –
6 | C[C@@H]1CC[C@H]2C(C)(C)[C@H]3C[C@@]12CC[C@@]3(C)O [Cedrol] | −2.475 | – | −2.090 | −1.547 | – | −1.761 | −1.348 | – | – | –
7 | CC(=O)O[C@]1(C)CC[C@@]23C[C@@H]1C(C)(C)[C@@H]2CC[C@H]3C [Cedryl acetate] | – | – | – | – | – | −2.566 | −1.161 | −2.685 | −2.483 | −1.971
8 | CC(C)=CCCC(C)CCO (stereo not drawn) [Citronellol] | −1.818 | −1.406 | −0.787 | −0.780 | −1.159 | −0.158 | −1.575 | – | – | –
9 | CC(=O)OC(C)(C)Cc1ccccc1 [DMBCA, dimethylbenzylcarbinyl acetate] | −1.127 | −0.513 | 0.059 | −0.041 | −0.856 | 0.125 | −0.992 | – | – | –
10 | CCOC(=O)c1ccccc1C(=O)OCC [Diethyl phthalate] | – | – | −1.742 | −2.124 | −2.459 | −2.303 | – | – | – | –
11 | C=CC(C)CCCC(C)(C)O (stereo not drawn) [Dihydromyrcenol] | −1.056 | −0.287 | 0.076 | 0.184 | −0.324 | 0.460 | −1.131 | – | – | –
12 | C=CCc1ccc(O)c(OC)c1 [Eugenol] | −2.257 | – | −1.435 | −1.440 | −0.822 | −0.653 | −2.412 | – | – | –
13 | CCCCCC/C(C=O)=C\c1ccccc1 [Hexylcinnamaldehyde, alpha] | −2.690 | – | −2.176 | −1.559 | – | – | −1.413 | – | – | –
14 | CC(CC=O)CCCC(C)(C)O (stereo not drawn) [Hydroxycitronellal] | −2.381 | – | −1.804 | −1.609 | −1.869 | −1.161 | – | – | – | –
15 | CC(C)CCOC(=O)c1ccccc1O [Isoamyl salicylate] | −1.612 | −1.716 | −1.190 | −1.467 | – | −1.544 | −0.870 | – | – | –
16 | C=C(C)[C@H]1CC=C(C)CC1 [Limonene D] | −0.183 | 0.965 | 0.748 | – | – | 0.062 | −1.102 | – | – | –
